Results published in patent US4604239A, “Antibiotics” (Eli Lilly and Company, priority 1985, dated 1986).
Values after ≈ are worked out from the molar mass of the structure shown.

Experiments:
[1] = system: Streptococcus faecalis; assay: agar-dilution MIC; type: cell-based; conditions: Streptococcus faecalis X66; Table 7
[2] = system: Neisseria sp.; assay: agar-dilution MIC; type: cell-based; conditions: Table 10
Protocol: The test results are recorded in Table 10, which follows.

[3] = system: Viridans streptococcus; assay: agar-dilution MIC; type: cell-based; conditions: Table 11
[4] = system: Shigella flexneri; conditions: Shigella flexneri SH-4; Table 11
Text: The agar-dilution procedure described by the International Collaborative study (ICS) group was used to determine the minimum inhibitory concentrations (MIC's).

[5] = system: Propionibacterium acnes; assay: agar-dilution MIC; type: cell-based
Text: Antibiotic A41030 factors A, B and C have also been tested and found to be active against a genus of anaerobic bacteria identified as Propionibacterium acnes.

[6] = system: Peptococcus asaccharolyticus; assay: agar-dilution MIC; type: cell-based; conditions: Table 15
Protocol: (§1) The MIC values were determined by the agar-dilution method, and are recorded in Table 15, which follows.

[7] = system: Peptococcus constellatus; assay: agar-dilution MIC; type: cell-based; conditions: Pc. constellatus 1468; Table 15
Protocol: as §1

[8] = system: Peptococcus magnus; assay: agar-dilution MIC; type: cell-based; conditions: Pc. magnus 1477; Table 15
Protocol: as §1

[9] = system: Peptococcus prevoti; assay: agar-dilution MIC; type: cell-based; conditions: Table 15
Protocol: as §1

[10] = system: Peptostreptococcus intermedius; assay: agar-dilution MIC; type: cell-based
[11] = system: Streptococcus sp. Group B; assay: agar-dilution MIC; type: cell-based; conditions: end point after 24 hours, Table 18
Text: The in vitro activity of antibiotic A41030 factors A and B against a number of representative aerobic, gram-positive bacteria, including Streptococcus sp. Group D, has been determined using a standard agar-dilution assay.

[12] = system: Haemophilus parainfluenzae; assay: agar-dilution MIC; type: cell-based; conditions: end point after 24 hours, Table 18
[13] = system: rumen fluid; assay: in vitro rumen fluid fermentation, volatile fatty acids; design: species or system steer; conditions: 16 hours at 38° C.
Text: Rumen fluid was obtained from a steer having a surgically-installed fistula opening into the rumen. The steer was maintained on a high-grain ration, the composition of which follows: A sample of rumen fluid was strained through 4 layers of cheesecloth and the filtrate was collected in a vacuum bottle. The particulate matter retained by the cheesecloth was resuspended in enough physiological buffer to return it to the original volume of the rumen fluid, and the suspension was again strained through cheesecloth. The buffer used is described below: The two filtrates were pooled in a separatory funnel and allowed to stand till particulate matter rose to the top. The clear layer was then separated and diluted 1:1 with the same buffer, and adjusted to pH 7.0. Ten ml. of the diluted rumen fluid thus prepared was placed in a 25 ml. flask with 90 mg. of finely-powdered high-grain ration, the composition of which is described above. The compound to be tested was weighed out and dissolved in the appropriate solvent, supra. The solution was placed on the finely-powdered ration in each test flask and dried. Two sets of four untreated control flasks each were also prepared. One set of four untreated control flasks was incubated for 16 hours at 38° C. with the test flasks. […] Fermentation in the incubated test and control flasks was stopped at the end of 16 hours by addition of 2 ml. of 25 percent metaphosphoric acid to each flask. All of the samples were allowed to settle, and the supernatant was analyzed by gas chromatographic methods for acetate, propionate, and butyrate. The analysis for each volatile fatty acid found in the zero-time controls was substracted from the analyses of the untreated controls and of the test flasks. The resulting values reflect the amount of each VFA produced during the 16-hour fermentation period. The data below are reported as the ratio of VFA's produced in treated flasks to VFA's produced in untreated control flasks.

[14] = system: Bacteroides corrodens; assay: agar-dilution MIC; type: cell-based; conditions: Bacteroides corrodens 1874; Table 14
[15] = system: Bacteroides vulgatis; assay: agar-dilution MIC; type: cell-based; conditions: Bacteroides vulgatis 1211; Table 14

SMILES: NC1C(=O)NC2Cc3ccc(c(Cl)c3)Oc3cc4cc(c3O)Oc3ccc(cc3Cl)C(O)C3NC(=O)C(NC(=O)C4NC(=O)C(NC2=O)c2cc(O)cc(c2)Oc2cc1ccc2O)c1cc(Cl)c(O)c(c1)-c1c(O)cc(O)cc1C(C(=O)O)NC3=O (stereo not drawn) [A41030 factor A]
- MIC [1]: < 0.5 µg/mL
- MIC ([2]; Neisseria sp. L. Nance): 4.0 µg/mL (≈ 3.24 µM)
- MIC ([2]; Neisseria sp. Mitchell): 4.0 µg/mL (≈ 3.24 µM)
- MIC ([2]; Neisseria sp. Sanders): 1.0 µg/mL (≈ 0.811 µM)
- MIC ([2]; Neisseria sp. Schultz): 8.0 µg/mL (≈ 6.49 µM)
- MIC ([2]; Neisseria sp. Woods): 4.0 µg/mL (≈ 3.24 µM)
- MIC ([3]; Viridans streptococcus SM-1134): 0.5 µg/mL (≈ 0.405 µM)
- MIC ([3]; Viridans streptococcus SSI-910): 0.25 µg/mL (≈ 0.203 µM)
- MIC ([3]; Viridans streptococcus SSII-895): 0.25 µg/mL (≈ 0.203 µM)
- MIC [4]: 64 µg/mL (≈ 51.9 µM)
- MIC ([5]; P. acnes 104, 24-hour, Table 13): 0.25 µg/mL (≈ 0.203 µM)
- MIC ([5]; P. acnes 107, 24-hour, Table 13): 0.06 µg/mL (≈ 0.0486 µM)
- MIC ([5]; P. acnes 5170, 24-hour, Table 13): ≤ 0.03 µg/mL
- MIC ([5]; P. acnes 5176, 24-hour, Table 13): ≤ 0.03 µg/mL
- MIC ([5]; P. acnes 5187, 24-hour, Table 13): ≤ 0.03 µg/mL
- MIC ([5]; P. acnes 5197, 24-hour, Table 13): ≤ 0.03 µg/mL
- MIC ([5]; P. acnes 5226, 24-hour, Table 13): 0.5 µg/mL (≈ 0.405 µM)
- MIC ([5]; P. acnes 5227, 24-hour, Table 13): ≤ 0.03 µg/mL
- MIC ([5]; P. acnes 5228, 24-hour, Table 13): 1.0 µg/mL (≈ 0.811 µM)
- MIC ([5]; P. acnes 5229, 24-hour, Table 13): 0.5 µg/mL (≈ 0.405 µM)
- MIC ([5]; P. acnes 5246, 24-hour, Table 13): 0.06 µg/mL (≈ 0.0486 µM)
- MIC ([5]; P. acnes 5292, 24-hour, Table 13): 0.06 µg/mL (≈ 0.0486 µM)
- MIC ([5]; Propionibacterium acnes 79, Table 14): ≤ 0.25 µg/mL
- MIC ([6]; Pc. asaccharolyticus 1302): ≤ 0.03 µg/mL
- MIC ([6]; Pc. asaccharolyticus 1344): 0.5 µg/mL (≈ 0.405 µM)
- MIC [7]: 0.5 µg/mL (≈ 0.405 µM)
- MIC [8]: 0.5 µg/mL (≈ 0.405 µM)
- MIC ([9]; Pc. prevoti 1293): 1.0 µg/mL (≈ 0.811 µM)
- MIC ([9]; Pc. prevoti 1407): 1.0 µg/mL (≈ 0.811 µM)
- MIC ([10]; Peptostreptococcus intermedius 1264, Table 14): 1.0 µg/mL (≈ 0.811 µM)
- MIC ([10]; Ps. intermedius 1264, Table 15): ≤ 0.03 µg/mL
- MIC ([10]; Ps. intermedius 1524, Table 15): 0.5 µg/mL (≈ 0.405 µM)
- MIC ([10]; Ps. intermedius 1624, Table 15): 1.0 µg/mL (≈ 0.811 µM)
- MIC ([11]; Streptococcus sp. Group B 5): 1 µg/mL (≈ 0.811 µM)
- MIC ([11]; Streptococcus sp. Group B 14): 0.06 µg/mL (≈ 0.0486 µM)
- MIC ([12]; Haemophilus parainfluenzae 7901): 16 µg/mL (≈ 13 µM)
- MIC ([12]; Haemophilus parainfluenzae 9796): 16 µg/mL (≈ 13 µM)
- Acetate, ratio of VFA's produced in treated flasks to untreated control flasks ([13]; 1 mcg./ml.): 1.01
- Butyrate, ratio of VFA's produced in treated flasks to untreated control flasks ([13]; 1 mcg./ml.): 0.66
- Propionate, ratio of VFA's produced in treated flasks to untreated control flasks ([13]; 1 mcg./ml.): 1.31
- Acetate, ratio of VFA's produced in treated flasks to untreated control flasks ([13]; 2 mcg./ml.): 1.03
- Butyrate, ratio of VFA's produced in treated flasks to untreated control flasks ([13]; 2 mcg./ml.): 0.94
- Propionate, ratio of VFA's produced in treated flasks to untreated control flasks ([13]; 2 mcg./ml.): 1.33
- MIC [14]: 64 µg/mL (≈ 51.9 µM)
- MIC [15]: 32 µg/mL (≈ 25.9 µM)
